Tests used:
Test in all cases: relative viability (nuclei count vs DMSO), 5 days (fraction); higher = more cells survive
201T = tested on: 201T
How it was run: (§1)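 One day after seeding in 1536-well plates, lung cancer cell lines were dosed by pin tool. Dosing was either single-drug or a fixed anchor-drug dose plus five library-drug doses (not always all listed) in √10 steps. After 5 days, nuclei were stained in one fix-and-stain step and counted on 4× images, and relative viability is the nuclei count of treated wells over that of vehicle wells, given as the median of duplicate plates.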

COR-L23 = tested on: COR-L23
How it was run: as §1

EPLC-272H = tested on: EPLC-272H
How it was run: as §1

H3255 = tested on: H3255
How it was run: as §1

HCC-44 = tested on: HCC-44
How it was run: as §1

LOU-NH91 = tested on: LOU-NH91
How it was run: as §1

NCI-H1563 = tested on: NCI-H1563
How it was run: as §1

NCI-H1734 = tested on: NCI-H1734
How it was run: as §1

NCI-H1793 = tested on: NCI-H1793
How it was run: as §1

NCI-H1993 = tested on: NCI-H1993
How it was run: as §1

NCI-H2023 = tested on: NCI-H2023
How it was run: as §1

NCI-H2085 = tested on: NCI-H2085
How it was run: as §1

NCI-H2347 = tested on: NCI-H2347
How it was run: as §1

NCI-H2405 = tested on: NCI-H2405
How it was run: as §1

NCI-H3122 = tested on: NCI-H3122
How it was run: as §1

NCI-H441 = tested on: NCI-H441
How it was run: as §1

NCI-H520 = tested on: NCI-H520
How it was run: as §1

NCI-H647 = tested on: NCI-H647
How it was run: as §1

PC-14 = tested on: PC-14
How it was run: as §1

RERF-LC-KJ = tested on: RERF-LC-KJ
How it was run: as §1

NC(=O)Nc1cc(-c2cccc(F)c2)sc1C(=O)N[C@H]1CCCNC1 [AZD7762] + C[C@]1(O)C[C@@H](c2nc(-c3ccc4ccc(-c5ccccc5)nc4c3)c3c(N)nccn32)C1 [Linsitinib] (partner 1 µM)
relative viability (201T; first compound 0.01 µM): 1.04
relative viability (201T; first compound 0.03162 µM): 1.06
relative viability (201T; first compound 0.1 µM): 1.1
relative viability (201T; first compound 0.3162 µM): 1.09
relative viability (201T; first compound 1 µM): 0.969
relative viability (COR-L23; first compound 0.01 µM): 1.11
relative viability (COR-L23; first compound 0.03162 µM): 0.916
relative viability (COR-L23; first compound 0.1 µM): 0.98
relative viability (COR-L23; first compound 0.3162 µM): 0.799
relative viability (COR-L23; first compound 1 µM): 0.18
relative viability (EPLC-272H; first compound 0.01 µM): 1.15
relative viability (EPLC-272H; first compound 0.03162 µM): 1.28
relative viability (EPLC-272H; first compound 0.1 µM): 1.23
relative viability (EPLC-272H; first compound 0.3162 µM): 1.19
relative viability (EPLC-272H; first compound 1 µM): 0.871
relative viability (H3255; first compound 0.01 µM): 0.931
relative viability (H3255; first compound 0.03162 µM): 1.04
relative viability (H3255; first compound 0.1 µM): 0.969
relative viability (H3255; first compound 0.3162 µM): 0.947
relative viability (H3255; first compound 1 µM): 0.817
relative viability (HCC-44; first compound 0.01 µM): 0.739
relative viability (HCC-44; first compound 0.03162 µM): 0.679
relative viability (HCC-44; first compound 0.1 µM): 0.724
relative viability (HCC-44; first compound 0.3162 µM): 0.647
relative viability (HCC-44; first compound 1 µM): 0.861
relative viability (LOU-NH91; first compound 0.01 µM): 1.01
relative viability (LOU-NH91; first compound 0.03162 µM): 0.966
relative viability (LOU-NH91; first compound 0.1 µM): 0.933
relative viability (LOU-NH91; first compound 0.3162 µM): 0.794
relative viability (LOU-NH91; first compound 1 µM): 0.57
relative viability (NCI-H1563; first compound 0.01 µM): 1.25
relative viability (NCI-H1563; first compound 0.03162 µM): 1.25
relative viability (NCI-H1563; first compound 0.1 µM): 1.46
relative viability (NCI-H1563; first compound 0.3162 µM): 1.12
relative viability (NCI-H1563; first compound 1 µM): 0.953
relative viability (NCI-H1734; first compound 0.01 µM): 0.885
relative viability (NCI-H1734; first compound 0.03162 µM): 0.887
relative viability (NCI-H1734; first compound 0.1 µM): 1.05
relative viability (NCI-H1734; first compound 0.3162 µM): 0.869
relative viability (NCI-H1734; first compound 1 µM): 0.734
relative viability (NCI-H1793; first compound 0.01 µM): 1.05
relative viability (NCI-H1793; first compound 0.03162 µM): 0.82
relative viability (NCI-H1793; first compound 0.1 µM): 0.994
relative viability (NCI-H1793; first compound 0.3162 µM): 0.801
relative viability (NCI-H1793; first compound 1 µM): 0.358
relative viability (NCI-H1993; first compound 0.01 µM): 0.743
relative viability (NCI-H1993; first compound 0.03162 µM): 0.678
relative viability (NCI-H1993; first compound 0.1 µM): 0.666
relative viability (NCI-H1993; first compound 0.3162 µM): 0.73
relative viability (NCI-H1993; first compound 1 µM): 0.717
relative viability (NCI-H2023; first compound 0.01 µM): 0.619
relative viability (NCI-H2023; first compound 0.03162 µM): 0.485
relative viability (NCI-H2023; first compound 0.1 µM): 0.387
relative viability (NCI-H2023; first compound 0.3162 µM): 0.21
relative viability (NCI-H2023; first compound 1 µM): 0.0864
relative viability (NCI-H2085; first compound 0.01 µM): 1.03
relative viability (NCI-H2085; first compound 0.03162 µM): 0.885
relative viability (NCI-H2085; first compound 0.1 µM): 0.874
relative viability (NCI-H2085; first compound 0.3162 µM): 0.948
relative viability (NCI-H2085; first compound 1 µM): 0.693
relative viability (NCI-H2347; first compound 0.01 µM): 1.09
relative viability (NCI-H2347; first compound 0.03162 µM): 1.01
relative viability (NCI-H2347; first compound 0.1 µM): 1.15
relative viability (NCI-H2347; first compound 0.3162 µM): 1.1
relative viability (NCI-H2347; first compound 1 µM): 1.04
relative viability (NCI-H2405; first compound 0.01 µM): 1
relative viability (NCI-H2405; first compound 0.03162 µM): 0.929
relative viability (NCI-H2405; first compound 0.1 µM): 0.86
relative viability (NCI-H2405; first compound 0.3162 µM): 0.655
relative viability (NCI-H2405; first compound 1 µM): 0.402
relative viability (NCI-H3122; first compound 0.01 µM): 1.02
relative viability (NCI-H3122; first compound 0.03162 µM): 0.986
relative viability (NCI-H3122; first compound 0.1 µM): 1.05
relative viability (NCI-H3122; first compound 0.3162 µM): 0.868
relative viability (NCI-H3122; first compound 1 µM): 1.12
relative viability (NCI-H441; first compound 0.01 µM): 0.656
relative viability (NCI-H441; first compound 0.03162 µM): 0.744
relative viability (NCI-H441; first compound 0.1 µM): 0.657
relative viability (NCI-H441; first compound 0.3162 µM): 0.823
relative viability (NCI-H441; first compound 1 µM): 0.67
relative viability (NCI-H520; first compound 0.01 µM): 1.16
relative viability (NCI-H520; first compound 0.03162 µM): 0.893
relative viability (NCI-H520; first compound 0.1 µM): 0.848
relative viability (NCI-H520; first compound 0.3162 µM): 0.551
relative viability (NCI-H520; first compound 1 µM): 0.389
relative viability (NCI-H647; first compound 0.01 µM): 1.37
relative viability (NCI-H647; first compound 0.03162 µM): 1.3
relative viability (NCI-H647; first compound 0.1 µM): 1.05
relative viability (NCI-H647; first compound 0.3162 µM): 0.462
relative viability (NCI-H647; first compound 1 µM): 0.153
relative viability (PC-14; first compound 0.01 µM): 0.975
relative viability (PC-14; first compound 0.03162 µM): 0.994
relative viability (PC-14; first compound 0.1 µM): 0.995
relative viability (PC-14; first compound 0.3162 µM): 0.891
relative viability (PC-14; first compound 1 µM): 0.425
relative viability (RERF-LC-KJ; first compound 0.01 µM): 0.923
relative viability (RERF-LC-KJ; first compound 0.03162 µM): 0.879
relative viability (RERF-LC-KJ; first compound 0.1 µM): 0.849
relative viability (RERF-LC-KJ; first compound 0.3162 µM): 0.908
relative viability (RERF-LC-KJ; first compound 1 µM): 0.842

From the supplement of paper PMC10307832
